The source of these data is ChEMBL document CHEMBL1681653, “Synthesis of N-alkylated noeurostegines and evaluation of their potential as treatment for Gaucher's disease” (Bioorg Med Chem Lett, 2011).

Positions count from the first letter of the chain named. Active and inactive are the calls of the source. The rule behind the calls is not given here.

The species entered for experiment [1] is Rattus norvegicus. As to the kind of experiment: Inhibition of rat liver alpha-glucosidase 2 assessed as conversion of Glc2Man7GlcNAc2 to Glc1Man7GlcNAc2 at 500 uM after 1.25 hrs.
Experiment [2] is filed under the species Rattus norvegicus. As to the kind of experiment: Inhibition of rat liver alpha-glucosidase 2 assessed as conversion of Glc2Man7GlcNAc2 to Man7GlcNAc2 at 500 uM after 1.25 hrs.
Experiment [3] concerns the target T1, Lysosomal acid glucosylceramidase (Homo sapiens, UniProt P04062).
T1 sequence (P04062 whole entry): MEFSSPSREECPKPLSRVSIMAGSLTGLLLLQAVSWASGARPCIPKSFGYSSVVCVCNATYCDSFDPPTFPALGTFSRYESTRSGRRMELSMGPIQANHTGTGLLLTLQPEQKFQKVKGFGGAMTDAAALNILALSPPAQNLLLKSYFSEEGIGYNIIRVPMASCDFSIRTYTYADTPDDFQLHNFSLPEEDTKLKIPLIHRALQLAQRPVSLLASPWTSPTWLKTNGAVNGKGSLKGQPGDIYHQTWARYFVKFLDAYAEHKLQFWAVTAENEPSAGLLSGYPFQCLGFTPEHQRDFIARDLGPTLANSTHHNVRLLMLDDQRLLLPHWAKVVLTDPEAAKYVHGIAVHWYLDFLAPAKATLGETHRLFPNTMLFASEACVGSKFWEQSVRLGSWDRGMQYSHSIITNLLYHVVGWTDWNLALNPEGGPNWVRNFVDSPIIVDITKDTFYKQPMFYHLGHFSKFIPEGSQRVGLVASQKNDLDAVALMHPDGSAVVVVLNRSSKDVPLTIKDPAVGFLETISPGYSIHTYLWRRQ
As to the kind of experiment: Inhibition of partially purified human placental beta-glucocerebrosidase after 15 to 60 mins.

Experiment [4] deals with T2, Lysosomal acid glucosylceramidase (Homo sapiens), P04062 [N409S].
T2 sequence (whole entry): T1 sequence (P04062 whole entry) with N409S
Put plainly: Activation of beta-glucocerebrosidase in human N370S cells assessed as increase of residual activity at 0.05 to 100 uM after 3 days relative to control. Type of experiment: cell-based.

The test system of experiment [5] is HL-60. As to the kind of experiment: Inhibition of endoplasmic reticulum alpha-glucosidase 1 in human HL-60 cells assessed as free oligosaccharide level at 500 uM after 24 hrs. Type of experiment: cell-based.
Experiment [6] deals with T3, Neutral alpha-glucosidase AB (Homo sapiens) (UniProt Q14697).
T3 sequence (whole entry): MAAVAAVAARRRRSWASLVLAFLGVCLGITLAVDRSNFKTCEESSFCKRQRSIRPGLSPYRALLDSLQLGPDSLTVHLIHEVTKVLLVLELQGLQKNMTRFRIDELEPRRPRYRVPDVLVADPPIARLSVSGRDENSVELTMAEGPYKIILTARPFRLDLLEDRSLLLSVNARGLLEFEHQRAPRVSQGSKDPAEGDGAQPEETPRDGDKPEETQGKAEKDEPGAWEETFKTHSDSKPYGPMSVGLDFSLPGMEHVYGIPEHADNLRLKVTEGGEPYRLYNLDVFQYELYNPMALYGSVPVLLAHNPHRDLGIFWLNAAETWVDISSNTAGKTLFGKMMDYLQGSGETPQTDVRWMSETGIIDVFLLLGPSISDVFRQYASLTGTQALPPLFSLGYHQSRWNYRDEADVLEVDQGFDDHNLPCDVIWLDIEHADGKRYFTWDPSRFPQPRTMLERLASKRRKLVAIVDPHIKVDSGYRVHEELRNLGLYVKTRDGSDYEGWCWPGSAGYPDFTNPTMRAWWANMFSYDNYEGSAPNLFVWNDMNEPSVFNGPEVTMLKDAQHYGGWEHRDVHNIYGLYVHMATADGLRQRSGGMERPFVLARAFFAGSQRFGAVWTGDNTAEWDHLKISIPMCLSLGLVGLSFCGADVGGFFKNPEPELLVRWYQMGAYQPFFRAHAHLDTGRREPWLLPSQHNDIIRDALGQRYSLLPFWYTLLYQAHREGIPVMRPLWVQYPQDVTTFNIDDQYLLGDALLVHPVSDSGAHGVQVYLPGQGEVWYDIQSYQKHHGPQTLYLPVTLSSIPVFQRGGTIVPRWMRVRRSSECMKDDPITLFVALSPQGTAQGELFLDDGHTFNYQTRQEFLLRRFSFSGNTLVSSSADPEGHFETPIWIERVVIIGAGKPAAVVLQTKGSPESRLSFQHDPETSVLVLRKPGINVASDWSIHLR
Put plainly: Inhibition of endoplasmic reticulum alpha-glucosidase 2 in human HL-60 cells assessed as free oligosaccharide level at 500 uM after 24 hrs. In kind it is cell-based.

The target of experiment [7] is T3, Neutral alpha-glucosidase AB (Homo sapiens). As to the kind of experiment: Inhibition of endoplasmic reticulum alpha-glucosidase 2 in human HL-60 cells assessed as free oligosaccharide level at 50 uM after 24 hrs. In kind it is cell-based.
Experiment [8] is filed under the species Rattus norvegicus. Put plainly: Inhibition of rat liver alpha-glucosidase 2 assessed as conversion of Glc2Man7GlcNAc2 to Glc1Man7GlcNAc2 at 100 uM after 1.25 hrs.
The species named for experiment [9] is Rattus norvegicus. As to the kind of experiment: Inhibition of rat liver alpha-glucosidase 2 assessed as conversion of Glc2Man7GlcNAc2 to Man7GlcNAc2 at 100 uM after 1.25 hrs.
Experiment [10] relates to HL-60. Put plainly: Inhibition of endoplasmic reticulum alpha-glucosidase 1 in human HL-60 cells assessed as free oligosaccharide level at 50 uM after 24 hrs. In kind it is cell-based.
The subject of experiment [11] is T2, Lysosomal acid glucosylceramidase (Homo sapiens), P04062 [N409S]. Put plainly: Activation of beta-glucocerebrosidase in human N370S cells assessed as increase of residual activity at 0.05 to 100 uM after 3 days. Type of experiment: cell-based.

As usually defined, the IC50 is the concentration that gives 50% inhibition. On to `OC[C@@H]1[C@@H](O)[C@H](O)[C@]2(O)CC[C@H]1N2` [NOEUROSTEGINE], for which the inhibition entry (in the experiment listed under Rattus norvegicus [1]; in the experiment filed under Rattus norvegicus [2]; in the experiment with HL-60 [5]; in experiment [6]) was “inactive” in each case. This compound displayed a half-maximal inhibitory concentration (IC50) in experiment [3] of 0.4 µM. Also, in experiment [4], the fold change (FC) turned out to be 1.82.

As to `CCCCN1C[C@H](O)[C@@H](O)[C@H](O)[C@H]1CO`, the inhibition entry (in experiment [7]; in the experiment filed under Rattus norvegicus [8]; in the experiment listed under Rattus norvegicus [9]; in the experiment on HL-60 [10]) was “Active” each time.

In [3], `O[C@@H]1[C@@H](O)[C@H](O)[C@]2(O)CC[C@H]1N2` [CALYSTEGINE B2] registered an IC50 of 1 µM.

In experiment [3], `CCCCN1[C@@H]2CC[C@@]1(O)[C@@H](O)[C@H](O)[C@H]2CO` came in with an IC50 of 100 µM. In addition, the result in experiment [11] was inactive.

`CCCCCCCCCN1[C@@H]2CC[C@@]1(O)[C@@H](O)[C@H](O)[C@H]2CO`: in [3], the IC50 was found to be 60 µM. Besides, in [11], the outcome was inactive.
